From patent publication US20210292807A1, “METHOD FOR TESTING ANTIMICROBIAL SUSCEPTIBILITY” (priority 2017, published 2021)
Converted amounts (≈) assume the structure as drawn. Like-named read-outs stand apart in the source and are kept apart here.

Key:
Staphylococcus aureus [1] = test: Broth microdilution (BMD) MIC of Staphylococcus aureus isolates; assay type: cell-based
Text: The acoustic flow cytometry assisted method of the present invention was employed essentially as described in the previous working examples to determine susceptibility of Staphylococcus aureus to both cefoxitin and oxacillin. Susceptibility classification into S/NS and quantitative MIC values obtained using the acoustic flow cytometry assisted method were compared to results obtained using the conventional broth microdilution (BMD) method. Results are shown in Table 4 (Panels A and B) below and in FIGS. 9-12.

Staphylococcus aureus [2] = test: Acoustic flow cytometry-assisted susceptibility test (FAST) of Staphylococcus aureus isolates; assay type: cell-based; parameters: MIC dilution at which susceptibility-associated signature is observed by AFC: unit not given beside the values
Procedure: The material and methods utilized are briefly outlined herein below. The method used was similar to that outlined in the earlier examples albeit adjusted to allow for 3 hour incubation of Staphylococcus aureus to account for longer doubling times of Staphylococcus aureus relative to K. pneumoniae used in the previous examples.
Events were acquired by forward scatter and BL1 (515 nm-545 nm) using the Attune with voltages and thresholding set as follows: Forward Scatter Voltage: 3050; Forward Scatter Threshold: 3×1000 AND; Side Scatter Voltage: 2950; Side Scatter Threshold: IGNORE; BL1 Voltage: 1500; BL1 Threshold: 1×1000 AND.
Nine mL of MHB was aliquoted into twelve, 50 mL Falcon tubes. Each tube was labelled with the required final test concentration of antibiotic. […] Tubes were transferred to a 35° C. incubator to pre-warm.
One 1 mL of the overnight bacterial suspension was transferred into a 1.5 mL microcentrifuge tube and centrifuge at 7,800×g for about 5 minutes. The supernatant was discarded, and the pellet re-suspended in 1 mL of 0.1 μm filtered HBSS. This step was optionally repeat.
About 900 μL of HBSS was dispended into three 1.5 mL tubes—two clear tubes and one amber tube. About 100 μL of the bacterial suspension was inoculated into the first tube (clear) and serially dilute to reach 1:1000 by the third tube (amber). About 1 μl of SYTO 9 (5 μM final concentration) was added to the third tube. The dye was incubated, protected from light, for at least 5 minutes (individual sample types were optionally required with longer incubations) and then the Stained Control on the Attune acoustic flow cytometer instrument was read
The event density (events/μL) from your stained control aliquots was used to calculate the inoculum volume required to produce a 5.5×10^5 bacteria mL-1 in 10 mL of MHB. For example, (400 events/A)/(10 mL×550000)=7.3 μL, rounded up to the closest 10 μL.
The required volume of bacterial suspension was added from the overnight culture into each 50 ml tube with 9 ml of preheated MHB. Optionally incubate with shaking and protected from light, at 100 RPM at 35° C. for 60 minutes.
MHB (0.1 μm filtered) was used to dilute the antibiotics in this preparation. About one aliquot of antibiotic was removed from the −20° C. freezer and equilibrated to room temperature by ambient heat exchange, and diluted to reach a range of working stock concentrations that were are ten times the desired test concentrations.
Once the 60-minute incubation of bacterial suspension was complete, about 1 mL of 10× antibiotic stocks were added to tubes containing bacterial suspensions to reach final desired test concentrations (1 ml antibiotic and total volume 10 ml). The 50 mL tubes were returned to the incubator and incubated, by shaking at 100 RPM at 35° C., for a further 3 hours.
After 3 hours, about 1 mL suspension was harvested from each tube and transferred to a 1.5 mL clear microcentrifuge tube (marked with the corresponding antibiotic concentration), then centrifuge at 7,800×g for 5 minutes. The supernatant discarded and the pellet resuspended in 1 mL of 0.1 μm filtered HBSS. This wash step was optionally repeated.
Using the computer connected to the Attune, new samples were created ready for the collection of data. That the following parameters were set: Sensitivity: High Sensitivity; Flow Rate: 25 μL/minute; Acquisition Volume: 125 μL; Events Collected: No less than 20,000 from all gates, Time: 1 minute.
About 899 μL HBSS was dispensed into one 1.5 mL amber tube per sample. About 100 μL of suspension per tube was added to achieve a 1 in 10 dilution. About 1 μl of SYTO 9 was added to each tube and the tube vortexed for no more than 2 seconds (over vortexing can lead to bacterial clustering and/or attachment to tube walls).
Samples were placed on the SIP and acquired, in technical triplicate, as per the parameters outlined above. […]

Klebsiella isolates = test: Acoustic flow cytometry-assisted susceptibility test (FAST), MICFAST and S/NS, Klebsiella isolates; assay type: cell-based, Klebsiella pneumoniae, Klebsiella oxytoca; parameters: MICBMD / MICFAST data point (FIG. 8): unit not given here; settings: 10 of 14 K. pneumoniae isolates
Procedure: A 1 mL aliquot of bacterial suspension was centrifuged, washed and resuspended in 1 mL filtered Hank's Buffered Salt Solution (HBSS; comprising about 0.137 M NaCl, about 5.4 mM KCl, about 0.25 mM Na2HPO4, about 0.1 g Glucose, about 0.44 mM KH2PO4, 1.3 mM CaCl2), 1.0 mM MgSO4, about 1.3 mM CaCl2), 1.0 mM MgSO4, and about 4.2 mM NaHCO3) and diluted in series (e.g., in a 1:10 serial dilution) to a final 1:1000 dilution.
One μL (microliter) of SYTO 9 stain (e.g., ThermoFisher Scientific) working stock solution was added to the final dilution at a final concentration of 5 μM and incubated for 5 minutes before counting bacterial events by acoustic flow cytometer (AFC) (Attune, ThermoFisher, Eugene, Oreg., USA), which was used to prepare a standardised inoculum density for susceptibility testing.
An aliquot of bacterial suspension was added to 50 mL centrifuge tubes (Corning, N.Y.) containing 9 mL of pre-warmed (37° C.) filtered MHB to produce a final density of 5×10^5-1×10^6 bacteria per mL. This suspension was incubated at 37° C. with shaking at 100 RPM for 30 minutes to obtain an actively dividing culture. An aliquot of antibiotic working solution from the previously described dilution series (appropriate to the concentration tested) was then added to each tube before a further 30-minute incubation with shaking, during which time a microbroth dilution (MBD) plate was prepared for overnight incubation at 37° C. as previously described in Clinical and Laboratory Standards Institute (2015) Performance Standards for Antimicrobial Susceptibility Testing: Informational Supplement. CLSI document M100-S25. Clinical and Laboratory Standards Institute, 950, West Valley Road, Suite 2500, Wayne, Pa., 19087, USA.
One millilitre of bacterial suspension from each antibiotic concentration was harvested by centrifugation at 7800×g for 5 minutes, washed and diluted 1:10 in filtered HBSS in a light-impermeable microcentrifuge tube, then stained with SYTO 9 stain at a final concentration of 5 μM, and incubated for 5 min before AFC sampling. Hoechst 33342 dye (NucBlue, Thermo Fisher Scientific, Eugene, Oreg., USA) and a SYTO 9/propidium iodide (PI) combination (Thermo Fisher Scientific) were used in a series of replicate experiments.
The acoustic flow cytometer employed was Attune acoustic flow cytometer (Thermo Fisher Scientific), having installed therein a 488 nm blue laser with a 530/30 nm filter on the photomultiplier tube for measuring fluorescence of cells assayed. Alternatively, the Attune NxT acoustic flow cytometer (Thermo Fisher Scientific) can be employed. AFC was calibrated at the beginning of each acquisition session using fluorescently labelled size calibration beads, in accordance with the manufacturer's instructions (ThermoFisher Scientific). The AFC settings were as follows: Forward Scatter (FSC) voltage 3100, FSC threshold 4×1000 AND, blue laser 1 (BL1—530/30 nm) voltage 1900, BL1 threshold 1×1000 AND, high sensitivity, flow rate 25 μL/minute, and an acquisition volume of 125 μL. Acquisition was halted after either collection of 20,000 events across all gates, or after 3 minutes, with each sample acquired in technical triplicate.
Collected data was exported in the FCS 3.0 file format and analysed in Flow v10.0 (FlowJo LLC, Ashland, Oreg., USA) by a single user, blinded to the MIC results by BMD (MICBMD).
Subsequent to quantitative MICFAST determination, the acoustic flow cytometer data were re-analysed in silico to produce a limited sub-set for qualitative susceptibility determination. The six antibiotic dilutions (0 mg/L, 0.25 mg/L, 1 mg/L, 2 mg/L, 4 mg/L and 16 mg/L) most relevant to qualitative susceptibility assessment were used. In silico analysis was restricted to the first technical triplicate of each recorded sample. Gating strategies remained consistent, with the addition of a gate restricting analysis to only those events recorded in the first 60 seconds of acquisition.

K. pneumoniae = test: AFC susceptibility-associated signature for ceftriaxone and gentamicin (FIG. 19); assay type: cell-based, Klebsiella pneumoniae
Text: FIG. 19 provides graphical and pictorial representations showing rapid determination of susceptibly of bacteria to antimicrobial using the using the AFC-assisted susceptibility testing method of the invention.
This example sets out to investigate utility of the AFC-assisted susceptibility testing method of the invention as a clinical test and tool which can inform use antimicrobial choice in the early hours of sepsis presentation, e.g., by applying the AFC-assisted susceptibility testing method directly to blood cultures.

[3] = S. aureus isolate ATCC 29213, MSSA
[4] = S. aureus isolate W0096111, MSSA
[5] = S. aureus isolate W0226111, MSSA
[6] = S. aureus isolate W0236111, MSSA
[7] = S. aureus isolate W0296111, MSSA
[8] = S. aureus isolate W0816111, MSSA
[9] = S. aureus isolate W0866111, MRSA
[10] = S. aureus isolate W6496111, MSSA
[11] = S. aureus isolate W9196111, MSSA
[12] = S. aureus isolate W9346111, MRSA
[13] = S. aureus isolate W . . . 6111, MRSA
[14] = S. aureus isolate WACC 98, MRSA

Cc1onc(-c2ccccc2)c1C(=O)N[C@@H]1C(=O)N2[C@@H]1SC(C)(C)[C@@H]2C(=O)O [Oxacillin, oxacillin] was tested, and the MIC (BMD) (Staphylococcus aureus [1]; [3]) was 0.25 µg/mL, the MIC (BMD) (Staphylococcus aureus [1]; [4]) was 0.25 µg/mL and the MIC (BMD) (Staphylococcus aureus [1]; [5]) was 0.25 µg/mL. For the same compound, the MIC (BMD) (Staphylococcus aureus [1]; [6]) was 0.25 µg/mL, the MIC (BMD) (Staphylococcus aureus [1]; [7]) was 0.25 µg/mL and the MIC (BMD) (Staphylococcus aureus [1]; [8]) was 0.25 µg/mL. It also gave an MIC (BMD) (Staphylococcus aureus [1]; [9]) of 16 µg/mL, an MIC (BMD) (Staphylococcus aureus [1]; [10]) of 1 µg/mL and an MIC (BMD) (Staphylococcus aureus [1]; [11]) of 0.25 µg/mL. For the same compound, the MIC (BMD) (Staphylococcus aureus [1]; [12]) was 32 µg/mL, the MIC (BMD) (Staphylococcus aureus [1]; [13]) was 8 µg/mL and the MIC (BMD) (Staphylococcus aureus [1]; [14]) was 256 µg/mL. The “MIC dilution at which susceptibility-associated signature is observed by AFC” value (Staphylococcus aureus [2]; S. aureus ATCC 29213) was 0.25, the “MIC dilution at which susceptibility-associated signature is observed by AFC” value (Staphylococcus aureus [2]; S. aureus WACC 98) was 256 and the MIC (FAST) (Staphylococcus aureus [2]; [3]) was no more than 1 µg/mL. For the same compound, the MIC (FAST) (Staphylococcus aureus [2]; [4]) was no more than 1 µg/mL, the MIC (FAST) (Staphylococcus aureus [2]; [5]) was no more than 1 µg/mL and the MIC (FAST) (Staphylococcus aureus [2]; [6]) was no more than 1 µg/mL. The MIC (FAST) (Staphylococcus aureus [2]; [7]) was no more than 1 µg/mL, the MIC (FAST) (Staphylococcus aureus [2]; [8]) was no more than 1 µg/mL and the MIC (FAST) (Staphylococcus aureus [2]; [9]) was 16 µg/mL (≈ 39.9 µM). The MIC (FAST) (Staphylococcus aureus [2]; [10]) was 1 µg/mL (≈ 2.49 µM), the MIC (FAST) (Staphylococcus aureus [2]; [11]) was no more than 1 µg/mL and the MIC (FAST) (Staphylococcus aureus [2]; [12]) was 32 µg/mL (≈ 79.7 µM). For the same compound, the MIC (FAST) (Staphylococcus aureus [2]; [13]) was 16 µg/mL (≈ 39.9 µM), the MIC (FAST) (Staphylococcus aureus [2]; [14]) was 256 µg/mL (≈ 638 µM) and the “events remaining in Unexposed Cell Morphotype gate (FIG. 14B)” value (Staphylococcus aureus [2]; clinical methicillin resistant S. aureus WACC 98, at EUCAST breakpoint 8 mg/L) was “above the 10% threshold for MICFAST”. The “events remaining in Unexposed Cell Morphotype gate (FIG. 14A)” value (Staphylococcus aureus [2]; control methicillin susceptible S. aureus ATCC 25912, oxacillin concentration range) was “remains below the 10% MICFAST threshold”.

For CO/N=C(\C(=O)N[C@@H]1C(=O)N2C(C(=O)O)=C(CSc3nc(=O)c(=O)[nH]n3C)CS[C@H]12)c1csc(N)n1 [ceftriaxone], the “MICBMD / MICFAST data point (FIG. 8)” value (Klebsiella isolates) was 256 and the MIC (K. pneumoniae; Klebsiella pneumoniae, K. pneumoniae susceptible type strain SSCC 43358, read-out: isolate's MIC (FIG. 19A)) was 0.25 µg/mL (≈ 0.451 µM).

gentamicin showed an MIC (K. pneumoniae; K. pneumoniae isolate 244606) of 1 µg/mL.
